Laboratory results published in US20230322747A1, “OXADIAZOLE HDAC6 INHIBITORS AND USES THEREOF” (Eikonizo Therapeutics, Inc., priority 2022, published 2023).

How the values were obtained:
Human HDAC6 = Human HDAC6 (Homo sapiens (Human), UniProt Q9UBN7); assay: HDAC6 enzymatic activity assay (Caliper endpoint or fluorogenic format); type: biochemical; settings: for IC50: in vitro enzymatic; for Selectivity (6 v 8) (fold): ratio of HDAC8 IC50/HDAC6 IC50
Human HDAC8 = Human HDAC8 (Homo sapiens (Human), UniProt Q9BY41); assay: Caliper endpoint assay for HDAC8 enzymatic activity; type: biochemical; settings: in vitro enzymatic
Chain of Human HDAC8 (Q9BY41 whole entry): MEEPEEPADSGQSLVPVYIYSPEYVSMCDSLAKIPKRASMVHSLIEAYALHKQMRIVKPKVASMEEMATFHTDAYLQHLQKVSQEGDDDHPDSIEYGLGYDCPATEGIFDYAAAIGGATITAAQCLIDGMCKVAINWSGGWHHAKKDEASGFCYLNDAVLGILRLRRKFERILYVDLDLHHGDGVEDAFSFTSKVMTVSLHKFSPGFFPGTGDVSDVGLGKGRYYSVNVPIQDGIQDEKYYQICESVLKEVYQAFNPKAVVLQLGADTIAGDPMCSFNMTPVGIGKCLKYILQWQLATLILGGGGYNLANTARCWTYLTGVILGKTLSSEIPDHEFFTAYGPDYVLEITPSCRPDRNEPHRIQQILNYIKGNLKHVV

Chain of Human HDAC6 (Q9UBN7 whole entry): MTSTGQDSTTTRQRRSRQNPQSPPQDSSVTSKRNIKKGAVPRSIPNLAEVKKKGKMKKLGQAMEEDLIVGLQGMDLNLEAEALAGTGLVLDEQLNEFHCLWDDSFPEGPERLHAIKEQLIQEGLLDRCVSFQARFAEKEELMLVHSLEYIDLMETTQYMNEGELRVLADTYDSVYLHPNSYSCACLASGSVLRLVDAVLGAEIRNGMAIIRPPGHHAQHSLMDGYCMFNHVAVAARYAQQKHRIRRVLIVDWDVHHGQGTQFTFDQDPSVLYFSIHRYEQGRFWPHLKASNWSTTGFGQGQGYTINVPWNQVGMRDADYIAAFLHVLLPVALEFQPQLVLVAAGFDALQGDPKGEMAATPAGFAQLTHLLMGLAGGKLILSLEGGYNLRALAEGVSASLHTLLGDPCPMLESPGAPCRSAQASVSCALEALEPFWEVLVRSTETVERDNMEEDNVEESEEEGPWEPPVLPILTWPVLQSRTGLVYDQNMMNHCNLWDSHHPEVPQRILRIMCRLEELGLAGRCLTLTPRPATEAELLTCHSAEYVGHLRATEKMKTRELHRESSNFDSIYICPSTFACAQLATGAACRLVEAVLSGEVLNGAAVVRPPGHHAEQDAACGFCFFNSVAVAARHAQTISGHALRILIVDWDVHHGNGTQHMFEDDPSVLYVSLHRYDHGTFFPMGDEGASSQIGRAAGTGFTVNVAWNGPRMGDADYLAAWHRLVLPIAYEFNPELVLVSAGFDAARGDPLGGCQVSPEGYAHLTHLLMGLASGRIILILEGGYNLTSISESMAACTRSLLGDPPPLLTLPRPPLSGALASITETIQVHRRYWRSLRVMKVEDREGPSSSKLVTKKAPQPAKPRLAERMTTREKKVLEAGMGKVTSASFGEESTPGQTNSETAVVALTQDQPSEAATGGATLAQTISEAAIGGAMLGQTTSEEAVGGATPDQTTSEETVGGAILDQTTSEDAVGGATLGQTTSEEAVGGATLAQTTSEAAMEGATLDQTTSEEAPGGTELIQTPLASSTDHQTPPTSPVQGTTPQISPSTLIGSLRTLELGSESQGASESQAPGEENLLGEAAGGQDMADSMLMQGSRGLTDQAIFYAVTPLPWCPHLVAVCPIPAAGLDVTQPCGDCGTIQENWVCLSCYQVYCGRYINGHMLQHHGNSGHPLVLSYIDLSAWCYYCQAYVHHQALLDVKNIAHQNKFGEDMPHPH

| IC50 (Human HDAC6) | Selectivity (6 v 8) (fold) (Human HDAC6) | IC50 (Human HDAC8) | Compound |
| --- | --- | --- | --- |
| 0.001 to 0.1 µM | V (V: >1000) | > 100 µM | Fc1ccc(OCc2ccc(-c3nnc(C(F)F)o3)cn2)cc1 [Compound 12, 2-(difluoromethyl)-5-(6-((4-fluorophenoxy)methyl)pyridin-3-yl)-1,3,4-oxadiazole] |
| 0.1 to 1 µM | V (V: >1000) | > 100 µM | FC(F)c1nnc(-c2ccc(COc3ccnc(N4CCOCC4)n3)nc2)o1 [Compound 99] |
| 0.1 to 1 µM | IV (IV: >100-1000) | > 100 µM | CC(C)n1cnc2cc(OCc3ccc(-c4nnc(C(F)F)o4)cn3)ccc21 [Compound 212] |
| 0.001 to 0.1 µM | V (V: >1000) | > 100 µM | FC(F)c1nnc(-c2ccc(COc3ccc4ocnc4c3)nc2)o1 [Compound 53] |
| 0.1 to 1 µM | V (V: >1000) | > 100 µM | Cc1cccc(OCc2ccc(-c3nnc(C(F)F)o3)cn2)n1 [Compound 72] |
| 1 to 10 µM | III (III: >10-100) | > 100 µM | CC(C)n1cnc2ccc(OCc3ccc(-c4nnc(C(F)F)o4)cn3)cc21 [Compound 203] |
| 0.001 to 0.1 µM | V (V: >1000) | > 100 µM | FC(F)c1nnc(-c2ccc(COc3cccc4ccccc34)nc2)o1 [Compound 11, 2-(difluoromethyl)-5-(6-((naphthalen-1-yloxy)methyl)pyridin-3-yl)-1,3,4-oxadiazole] |
| > 100 µM | V (V: >1000) | > 100 µM | NC(=O)c1ccc(OCc2ccc(-c3nnc(C(F)F)o3)cn2)cc1 [Compound 122, 4-((5-(5-(difluoromethyl)-1,3,4-oxadiazol-2-yl)pyridin-2-yl)methoxy)benzamide] |
| 0.001 to 0.1 µM | IV (IV: >100-1000) | 10 to 100 µM | Cc1nc2cc(OCc3ccc(-c4nnc(C(F)F)o4)cn3)ccc2o1 [Compound 61] |
| 0.001 to 0.1 µM | V (V: >1000) | 10 to 100 µM | N#Cc1ccc(OCc2ccc(-c3nnc(C(F)F)o3)cn2)c(F)c1 [Compound 47] |
| 0.001 to 0.1 µM | V (V: >1000) | 10 to 100 µM | FC(F)c1nnc(-c2ccc(COc3cccnc3)nc2)o1 [Compound 17, 2-(difluoromethyl)-5-(6-((pyridin-3-yloxy)methyl)pyridin-3-yl)-1,3,4-oxadiazole] |
| 0.001 to 0.1 µM | V (V: >1000) | > 100 µM | FC(F)c1nnc(-c2ccc(COc3cccc4cncnc34)nc2)o1 [Compound 56] |
| 0.1 to 1 µM | V (V: >1000) | > 100 µM | Cc1cccnc1OCc1ccc(-c2nnc(C(F)F)o2)cn1 [Compound 73] |
| 0.1 to 1 µM | IV (IV: >100-1000) | > 100 µM | CCn1cnc2cc(OCc3ccc(-c4nnc(C(F)F)o4)cn3)ccc21 [Compound 211] |
| 0.001 to 0.1 µM | V (V: >1000) | 10 to 100 µM | Cn1ncc2cc(OCc3ccc(-c4nnc(C(F)F)o4)cn3)ccc21 [Compound 37] |
| 0.1 to 1 µM | V (V: >1000) | > 100 µM | Cc1ccc(OCc2ccc(-c3nnc(C(F)F)o3)cn2)cn1 [Compound 70] |
| 0.001 to 0.1 µM | IV (IV: >100-1000) | 10 to 100 µM | N#CCc1ccc(OCc2ccc(-c3nnc(C(F)F)o3)cn2)cc1 [Compound 43] |
| 0.1 to 1 µM | IV (IV: >100-1000) | 10 to 100 µM | FC(F)c1nnc(-c2ccc(COc3ccc(C4CC4)nn3)nc2)o1 [Compound 83] |

| IC50 (Human HDAC6) | Selectivity (6 v 8) (fold) (Human HDAC6) | IC50 (Human HDAC8) | Compound |
| --- | --- | --- | --- |
| 0.001 to 0.1 µM | V (V: >1000) | > 100 µM | N#CCc1ccccc1OCc1ccc(-c2nnc(C(F)F)o2)cn1 [Compound 44] |
| 0.1 to 1 µM | V (V: >1000) | > 100 µM | FC(F)c1nnc(-c2ccc(COc3ccc(C4CC4)cn3)nc2)o1 [Compound 85, 2-[6-[(5-cyclopropyl-2-pyridyl)oxymethyl]-3-pyridyl]-5-(difluoromethyl)-1,3,4-oxadiazole] |
| 0.001 to 0.1 µM | V (V: >1000) | > 100 µM | N#Cc1cccc(OCc2ccc(-c3nnc(C(F)F)o3)cn2)c1F [Compound 46] |
| 0.001 to 0.1 µM | V (V: >1000) | > 100 µM | N#Cc1cccc(F)c1OCc1ccc(-c2nnc(C(F)F)o2)cn1 [Compound 48] |
| 0.001 to 0.1 µM | V (V: >1000) | > 100 µM | FC(F)c1nnc(-c2ccc(C(F)(F)Oc3cccc4cccnc34)nc2)o1 [Compound 13, 2-(6-(difluoro(quinolin-8-yloxy)methyl)pyridin-3-yl)-5-(difluoromethyl)-1,3,4-oxadiazole] |
| 0.001 to 0.1 µM | V (V: >1000) | > 100 µM | N#Cc1ccc(OCc2ccc(-c3nnc(C(F)F)o3)cn2)cc1F [Compound 52] |
| 0.001 to 0.1 µM | V (V: >1000) | > 100 µM | Cc1ccnc(OCc2ccc(-c3nnc(C(F)F)o3)cn2)c1 [Compound 71] |
| 0.001 to 0.1 µM | V (V: >1000) | > 100 µM | C#Cc1ccccc1OCc1ccc(-c2nnc(C(F)F)o2)cn1 [Compound 41] |
| 0.001 to 0.1 µM | V (V: >1000) | > 100 µM | FC(F)c1nnc(-c2ccc(COc3ccc(Cl)cc3)nc2)o1 [Compound 8, 2-(6-((4-chlorophenoxy)methyl)pyridin-3-yl)-5-(difluoromethyl)-1,3,4-oxadiazole] |
| 0.001 to 0.1 µM | V (V: >1000) | > 100 µM | FC(F)c1nnc(-c2ccc(COc3cncc(C(F)(F)F)c3)nc2)o1 [Compound 93] |
| 0.001 to 0.1 µM | V (V: >1000) | 10 to 100 µM | FC(F)c1nnc(-c2ccc(COc3cncc4ccccc34)nc2)o1 [Compound 88] |
| 0.001 to 0.1 µM | IV (IV: >100-1000) | 1 to 10 µM | FC(F)c1nnc(-c2ccc(COc3ccc4ccncc4c3)nc2)o1 [Compound 31] |
| 0.001 to 0.1 µM | V (V: >1000) | > 100 µM | N#Cc1cccc(OCc2ccc(-c3nnc(C(F)F)o3)cn2)c1 [Compound 26] |
| 0.001 to 0.1 µM | V (V: >1000) | > 100 µM | Fc1ccc(Cl)c(OCc2ccc(-c3nnc(C(F)F)o3)cn2)c1 [Compound 7, 2-(6-((2-chloro-5-fluorophenoxy)methyl)pyridin-3-yl)-5-(difluoromethyl)-1,3,4-oxadiazole] |
| 0.001 to 0.1 µM | V (V: >1000) | > 100 µM | CC(C)n1ccc(OCc2ccc(-c3nnc(C(F)F)o3)cn2)n1 [Compound 79] |
| 0.001 to 0.1 µM | V (V: >1000) | > 100 µM | C#Cc1cccc(OCc2ccc(-c3nnc(C(F)F)o3)cn2)c1 [Compound 39] |
| 0.001 to 0.1 µM | IV (IV: >100-1000) | 10 to 100 µM | N#Cc1c(F)cccc1OCc1ccc(-c2nnc(C(F)F)o2)cn1 [Compound 29] |

| Compound | IC50 (Human HDAC6) | Selectivity (6 v 8) (fold) (Human HDAC6) | IC50 (Human HDAC8) |
| --- | --- | --- | --- |
| N#CCc1cccc(OCc2ccc(-c3nnc(C(F)F)o3)cn2)c1 [Compound 27] | 0.001 to 0.1 µM | V (V: >1000) | > 100 µM |
